# Where a SMILES comes first, the peptide text is derived from it. Side-chain parts run from the residue outwards. The star is where a group is joined. FITC = O=C1OC2(c3ccc(O)cc3Oc3cc(O)ccc32)c2ccc(NC(=S)*)cc21; AEEA = NCCOCCOCC(=O)O
# Biological target: T1, native PRMT5–MEP50 complex (Homo sapiens, UniProt O14744+Q9BQA1)
# T1 construct: Full‐length PRMT5–MEP50; 6His-MBP with 3C site (N, cleaved yes); made in house; host or cells: HighFive insect cells (flashBAC baculovirus system)
# Assay: Fluorescence polarisation direct binding assay, full-length PRMT5–MEP50
# Details: FP using the native PRMT5–MEP50 complex; FITC peptide 1 nM; pH 8.0; 30 min, 20-21 °C; n=3; n.b. = no binding
# Source text: (§1) All proteins were expressed at the Protein Chemistry Facility (PCF) based in the MPI Dortmund.
# (§2) For expression of the proteins, all constructs were subcloned into pOPIN vectors. […]
# (§3) Expression of full-length human RioK1 tagged with 6NHis-3C and co-expression of full-length human PRMT5 (N-terminal 6His-MBP with 3C) with MEP50 (N-terminal 6His-TRX with 3C), and of TIM barrel (1-292 aa) with MEP50 (both N-terminally tagged with His-TRX with 3C cleavage site) was done using the Flash Bac Expression System (Oxford Expression Technologies, UK) with HighFive insect cells in Gibco Sf-900 III SFM medium. The cells were harvested by centrifugation and lysed.
# (§4) All proteins were purified at the PCF (MPI Dortmund).
# (§5) Protein purification was performed on HisTrap FF crude 5 ml Ni-based column, followed by the on-column treatment with 6His-tagged HRV-3C PreScission protease, or in case of the SUMO-tagged TIM barrel, with 6His-tagged SUMO protease. The cleaved proteins were then further purified using gel filtration chromatography with the HiLoad 26/60 Superdex 75 or 200 prep grade column. PRMT5 -MEP50, TIM-MEP50 and TIM barrel were stored in a buffer containing 50 mM HEPES, 250 mM NaCl, 1 mM TCEP with the pH adjusted to 8.0, whereas, pICln was stored in a buffer of 20 mM phosphate, 100 mM NaCl, 5 mM TCEP and pH of 7.5, whereas RioK1 was stored in a buffer of 50 mM Tris, 200 mM NaCl, 10% glycerol, 1 […]
# (§6) Protein Labelling with Alexa 488
# (§7) To a protein solution (ca. 1 mg/ml) in 0.2 M bicarbonate buffer with 1 mM TCEP at pH 8.3, was added 10 mM Alexa 488 NHS-ester in DMSO (8 equiv), and the mixture was kept on ice, in darkness, overnight. The protein was washed eight times with buffer (50 mM HEPES, 250 mM NaCl, 1 mM TCEP, 8.0 pH) using an Amicon® Ultra-0.5 mL spin filter. Protein concentration was then determined using the NanoDrop […]
# Fluorescence Polarisation (FP)
# The assay was performed in a buffer of 50 mM HEPES, 250 mM NaCl, 1 mM TCEP, 0.01% (v/v) Tween 20, pH 8.0, in black, 384 well-plates, with a total volume of 10 μl per well. The analysed, FITC labelled peptides, or Alexa488-labelled pICln or RioK1, were tested at a final concentration of 1 nM, and the appropriate unlabelled protein was titrated as two-fold dilution series. The plates were incubated at 20-21 °C for 30 min in case of FITC -labelled peptides or 1-2h in case of the Alexa488-labelled protein, and analysed on a plate reader using 485 nm excitation and 535 nm emission wavelength. The assay was performed in […]
# T1 sequence (O14744 whole entry): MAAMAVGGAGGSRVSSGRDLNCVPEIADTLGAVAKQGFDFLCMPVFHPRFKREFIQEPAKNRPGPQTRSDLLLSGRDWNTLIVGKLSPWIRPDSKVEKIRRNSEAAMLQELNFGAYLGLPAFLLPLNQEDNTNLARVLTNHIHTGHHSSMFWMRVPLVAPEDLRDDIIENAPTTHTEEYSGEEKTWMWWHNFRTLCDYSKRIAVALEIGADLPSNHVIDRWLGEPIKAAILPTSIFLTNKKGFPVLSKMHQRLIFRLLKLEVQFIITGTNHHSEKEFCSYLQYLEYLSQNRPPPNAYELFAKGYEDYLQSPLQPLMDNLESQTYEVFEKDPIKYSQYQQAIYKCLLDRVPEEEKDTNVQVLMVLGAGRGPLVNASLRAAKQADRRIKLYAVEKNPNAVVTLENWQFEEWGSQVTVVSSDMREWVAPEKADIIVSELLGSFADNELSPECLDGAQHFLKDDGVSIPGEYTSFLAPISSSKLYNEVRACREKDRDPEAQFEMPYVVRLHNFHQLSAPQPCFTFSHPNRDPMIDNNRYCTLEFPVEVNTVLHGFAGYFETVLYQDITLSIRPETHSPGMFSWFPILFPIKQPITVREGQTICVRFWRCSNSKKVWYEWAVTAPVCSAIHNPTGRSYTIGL
# T1 sequence (Q9BQA1 whole entry partner): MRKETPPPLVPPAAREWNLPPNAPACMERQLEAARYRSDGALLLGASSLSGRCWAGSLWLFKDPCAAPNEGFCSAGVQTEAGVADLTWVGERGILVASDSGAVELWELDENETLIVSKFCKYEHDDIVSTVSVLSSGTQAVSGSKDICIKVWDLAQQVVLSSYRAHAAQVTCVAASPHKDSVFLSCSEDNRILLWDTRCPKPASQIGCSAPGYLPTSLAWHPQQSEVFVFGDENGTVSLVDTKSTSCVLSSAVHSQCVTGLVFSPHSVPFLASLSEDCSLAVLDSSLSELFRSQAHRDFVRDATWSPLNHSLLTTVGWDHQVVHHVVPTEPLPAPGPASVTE
row,"K D (Table 2, peptides 1–16)",Compound
1,n.b.,"Fitc‐O2Oc‐TPTVAGQF‐NH2 [compound 14, C-terminally truncated pICln derived Fitc-labelled peptide]"
2,n.b.,"Fitc‐O2Oc‐SRVVPGQF‐NH2 [compound 6, C-terminally truncated RioK1 derived Fitc-labelled peptide]"
3,n.b.,"Ac‐FDDADK(O2Oc‐Fitc)‐NH2 [compound 10, N-terminally truncated, C-terminally labelled RioK1 derived peptide]"

# Same assay, conditions: FP using the native PRMT5–MEP50 complex; FITC peptide 1 nM; pH 8.0; 30 min, 20-21 °C; n=3; n.b. = no binding; read-out: K D (Table 2, peptides 1–16)
row,Kd,Compound
1,0.208 ± 0.074 µM,CC(=O)N[C@H](C(=O)N1CCC[C@H]1C(=O)NCC(=O)N[C@@H](CCC(N)=O)C(=O)N[C@@H](Cc1ccccc1)C(=O)N[C@@H](CC(=O)O)C(=O)N[C@@H](CC(=O)O)C(=O)N[C@@H](C)C(=O)N[C@@H](CC(=O)O)C(=O)N[C@@H](CCCCNC(=O)COCCOCCNC(=S)Nc1ccc2c(c1)C(=O)OC21c2ccc(O)cc2Oc2cc(O)ccc21)C(N)=O)C(C)C [compound 8] (Ac-VPGQFDDADK([AEEA-FITC])-NH2)
2,0.716 ± 0.036 µM,CC(=O)N[C@@H](CO)C(=O)N[C@@H](CCCNC(=N)N)C(=O)N[C@H](C(=O)N[C@H](C(=O)N1CCC[C@H]1C(=O)NCC(=O)N[C@@H](CCC(N)=O)C(=O)N[C@@H](Cc1ccccc1)C(=O)N[C@@H](CC(=O)O)C(=O)N[C@@H](CC(=O)O)C(=O)N[C@@H](C)C(=O)N[C@@H](CC(=O)O)C(=O)N[C@@H](CCCCNC(=O)COCCOCCNC(=S)Nc1ccc2c(c1)C(=O)OC21c2ccc(O)cc2Oc2cc(O)ccc21)C(N)=O)C(C)C)C(C)C [compound 7] (Ac-SRVVPGQFDDADK([AEEA-FITC])-NH2)
3,> 5 µM,CC(=O)NCC(=O)N[C@@H](CCC(N)=O)C(=O)N[C@@H](Cc1ccccc1)C(=O)N[C@@H](CC(=O)O)C(=O)N[C@@H](CC(=O)O)C(=O)N[C@@H](C)C(=O)N[C@@H](CC(=O)O)C(=O)N[C@@H](CCCCNC(=O)COCCOCCNC(=S)Nc1ccc2c(c1)C(=O)OC21c2ccc(O)cc2Oc2cc(O)ccc21)C(N)=O [compound 9] (Ac-GQFDDADK([AEEA-FITC])-NH2)
4,0.192 ± 0.026 µM,CSCC[C@H](NC(=O)[C@H](CC(C)C)NC(=O)[C@H](CC(C)C)NC(=O)COCCOCCNC(=S)Nc1ccc2c(c1)C(=O)OC21c2ccc(O)cc2Oc2cc(O)ccc21)C(=O)N[C@@H](CO)C(=O)N[C@@H](CCCNC(=N)N)C(=O)N[C@H](C(=O)N[C@H](C(=O)N1CCC[C@H]1C(=O)NCC(=O)N[C@@H](CCC(N)=O)C(=O)N[C@@H](Cc1ccccc1)C(=O)N[C@@H](CC(=O)O)C(=O)N[C@@H](CC(=O)O)C(=O)N[C@@H](C)C(=O)N[C@@H](CC(=O)O)C(N)=O)C(C)C)C(C)C [compound 12] ({FITC-AEEA}-LLMSRVVPGQFDDAD-NH2)
5,0.279 ± 0.041 µM,CSCC[C@H](NC(=O)[C@H](CC(C)C)NC(=O)[C@H](CC(C)C)NC(=O)COCCOCCNC(=S)Nc1ccc2c(c1)C(=O)OC21c2ccc(O)cc2Oc2cc(O)ccc21)C(=O)N[C@@H](CO)C(=O)N[C@@H](CCCNC(=N)N)C(=O)N[C@H](C(=O)N[C@H](C(=O)N1CCC[C@H]1C(=O)NCC(=O)N[C@@H](CCC(N)=O)C(=O)N[C@@H](Cc1ccccc1)C(=O)N[C@@H](CC(=O)O)C(=O)N[C@@H](CC(=O)O)C(=O)N[C@@H](C)C(=O)N[C@@H](CC(=O)O)C(=O)N[C@@H](CO)C(=O)N[C@@H](CO)C(=O)N[C@@H](CC(=O)O)C(N)=O)C(C)C)C(C)C [compound 13] ({FITC-AEEA}-LLMSRVVPGQFDDADSSD-NH2)
6,0.295 ± 0.011 µM,CC(C)[C@H](NC(=O)[C@H](CCCNC(=N)N)NC(=O)[C@H](CO)NC(=O)COCCOCCNC(=S)Nc1ccc2c(c1)C(=O)OC21c2ccc(O)cc2Oc2cc(O)ccc21)C(=O)N[C@H](C(=O)N1CCC[C@H]1C(=O)NCC(=O)N[C@@H](CCC(N)=O)C(=O)N[C@@H](Cc1ccccc1)C(=O)N[C@@H](CC(=O)O)C(=O)N[C@@H](CC(=O)O)C(=O)N[C@@H](C)C(=O)N[C@@H](CC(=O)O)C(=O)N[C@@H](CO)C(=O)N[C@@H](CO)C(=O)N[C@@H](CC(=O)O)C(N)=O)C(C)C [compound 11] ({FITC-AEEA}-SRVVPGQFDDADSSD-NH2)
7,2.38 ± 0.817 µM,CC(C)[C@H](NC(=O)COCCOCCNC(=S)Nc1ccc2c(c1)C(=O)OC21c2ccc(O)cc2Oc2cc(O)ccc21)C(=O)N[C@@H](CC(=O)O)C(=O)N[C@H](C(=O)N[C@H](C(=O)N1CCC[C@H]1C(=O)N[C@H](C(=O)N[C@H](C(=O)N[C@@H](C)C(=O)NCC(=O)N[C@@H](CCC(N)=O)C(=O)N[C@@H](Cc1ccccc1)C(=O)N[C@@H](CCC(=O)O)C(=O)N[C@@H](CC(=O)O)C(=O)N[C@@H](C)C(=O)N[C@@H](CC(=O)O)C(N)=O)C(C)C)[C@@H](C)O)[C@@H](C)O)[C@@H](C)O [compound 16] ({FITC-AEEA}-VDTTPTVAGQFEDAD-NH2)
8,> 5 µM,CC(C)[C@H](NC(=O)[C@H](CCCNC(=N)N)NC(=O)[C@H](CO)NC(=O)COCCOCCNC(=S)Nc1ccc2c(c1)C(=O)OC21c2ccc(O)cc2Oc2cc(O)ccc21)C(=O)N[C@H](C(=O)N1CCC[C@H]1C(=O)NCC(=O)N[C@@H](CCC(N)=O)C(=O)N[C@@H](Cc1ccccc1)C(=O)N[C@@H](CC(=O)O)C(=O)N[C@@H](CC(=O)O)C(N)=O)C(C)C [compound 5] ({FITC-AEEA}-SRVVPGQFDD-NH2)
9,0.52 ± 0.04 µM,CC(C)[C@H](NC(=O)[C@H](CC(=O)O)NC(=O)[C@H](C)NC(=O)[C@H](CC(=O)O)NC(=O)[C@H](CCC(=O)O)NC(=O)[C@H](Cc1ccccc1)NC(=O)[C@H](CCC(N)=O)NC(=O)CNC(=O)[C@H](C)NC(=O)[C@@H](NC(=O)[C@@H](NC(=O)[C@@H]1CCCN1C(=O)[C@@H](NC(=O)COCCOCCNC(=S)Nc1ccc2c(c1)C(=O)OC21c2ccc(O)cc2Oc2cc(O)ccc21)[C@@H](C)O)[C@@H](C)O)C(C)C)C(=O)N[C@@H](CC(=O)O)C(=O)N[C@@H](Cc1c[nH]cn1)C(N)=O [compound 15] ({FITC-AEEA}-TPTVAGQFEDADVDH-NH2)

# Biological target: T1, native PRMT5–MEP50 complex
# Assay: Competitive fluorescence polarisation binding assay with compound 11 as tracer
# Details: competitive FP; tracer compound 11 at 1 nM, PRMT5-MEP50 600 nM, unlabelled peptide titrated two-fold; pH 8.0; 30 min, 20-21 °C; n=3
# Source text: as §1, §2, §3, §4, §5, §6, §7
# Competitive Binding Assay
# The competitive binding assay was performed in a buffer of 50 mM HEPES, 250 mM NaCl, 1 mM TCEP, 0.01% (v/v) Tween 20, 8.0 pH, in black, 384 well-plates, with a total volume of 10 μl per well. The FITC labelled peptides were added at the final concentration of 1 nM, were mixed with PRMT5-MEP50 (at the final concentration of 600 nM), and the appropriate non-labelled peptide was titrated as two-fold dilution series. The plates were incubated at 20-21 °C for 30 min and analysed on a plate reader using 485 nm excitation and 535 nm emission wavelength. The experiment was performed in triplicates.
row,Compound,IC50
1,Ac-SRVVPGQFDDADSSD-NH2 [compound 23],1.5 ± 0.4 µM
2,Ac-TPTVAGQFEDAD-NH2 [compound 24],14.6 ± 0.9 µM
3,Ac-MVFETGQFDDAED-NH2 [compound 25],3.4 ± 0.2 µM
4,Ac-SRVVPGQFDDAD-NH2 [compound 26],6 ± 0.7 µM

# Other lines, results leading:
row,IC50,Compound
1,14 ± 3.4 µM,Ac-SRVAPGQFDDAD-NH2 [compound 34]
2,2.8 ± 0.5 µM,Ac-SAVVPGQFDDAD-NH2 [compound 36]
3,39 ± 8.5 µM,Ac-SRVVPAQFDDAD-NH2 [compound 32]
4,4.8 ± 0.7 µM,Ac-SRAVPGQFDDAD-NH2 [compound 35]
5,> 300 µM,Ac-SRVVPGAFDDAD-NH2 [compound 31]
6,> 300 µM,Ac-SRVVPGQADDAD-NH2 [compound 30]
7,6.4 ± 0.3 µM,Ac-SRVVPGQFADAD-NH2 [compound 29]
8,0.9 ± 0.2 µM,Ac-ARVVPGQFDDAD-NH2 [compound 37]
9,97 ± 17 µM,Ac-SRVVPGQFDAAD-NH2 [compound 28]
10,9.9 ± 2.2 µM,Ac-SRVVAGQFDDAD-NH2 [compound 33]
11,6.2 ± 2.2 µM,Ac-SRVVPGQFDDAA-NH2 [compound 27]

# — PMC8252068, “Biochemical Investigation of the Interaction of pICln, RioK1 and COPR5 with the PRMT5–MEP50 Complex” (Chembiochem, 2021)
